“And” between values parts separate entries of the source, which are not always exact repeats. Equal entries are not always repeated. Where two headings read alike, the source gives them in different places.
What was measured:
C. albicans NRRL Y-477 [1] = format: cell-based, Candida albicans
Procedure: (§1) Spontaneous mutant selection. […] Three individual colonies from each strain were used to start cultures in RPMI. […] One milliliter aliquots were spread onto SDA plates containing drug with sterile glass beads. Starting viable count was enumerated by triplicate plating of serial dilutions of the starting inoculum. […] Glycerol stocks of putative mutant colonies were stored at −80° C. […] Spontaneous mutation frequencies were calculated by dividing the number of resistant colonies on a given plate by the starting inoculum plated. A subset of mutants (weighted heavily towards those selected with CMP1) were then evaluated by MIC and sequencing of FKS gene hot spot regions.

[2] = system: C. glabrata ATCC 90030, ATCC 2001; format: cell-based, Candida glabrata; conditions: for Freq. (replicate mutation frequency): replicate plates 1-3; for Plate concentration: SDA, minimum concentration to cleanly inhibit growth
Procedure: as §1

C. albicans NRRL Y-477 [3] = assay: microbe, parasite or virus in culture; format: cell-based, Candida albicans; conditions: for MIC: Candida albicans
[4] = system: C. glabrata ATCC 90030, ATCC 2001; assay: microbe, parasite or virus in culture; format: cell-based, Candida glabrata; conditions: for MIC fold-shift: WT to P20; for MIC: Nakaseomyces glabratus
C. parapsilosis CP02 = assay: microbe, parasite or virus in culture; format: cell-based, Candida parapsilosis; conditions: for MIC: Lodderomyces parapsilosis
C. krusei ATCC 6258 = assay: microbe, parasite or virus in culture; format: cell-based, Candida krusei; conditions: for MIC: Pichia kudriavzevii
[5] = system: C. albicans vaginal isolates; assay: Susceptibility testing of VVC clinical isolates at pH 7 and 4 (CLSI M27-A3); format: cell-based, Candida albicans; conditions: Candida albicans; for MIC: read-out: MIC; for MIC90: 60 isolates, read-out: MIC90
[6] = system: C. parapsilosis vaginal isolates; assay: as above; format: cell-based, Candida parapsilosis; conditions: 14 isolates, read-out: MIC90
Aspergillus fumigatus = assay: Broth microdilution of invasive fungal isolates (CLSI M27-A3/M38-A2), MEC; format: cell-based; conditions: 56 isolates

CC[C@H](C)C[C@H](C)CCCCCCCCC(=O)N[C@H]1C[C@@H](O)[C@@H](NCCN)NC(=O)[C@@H]2[C@@H](O)CCN2C(=O)[C@H]([C@H](O)CCN)NC(=O)[C@H]([C@H](O)[C@@H](O)c2ccc(O)cc2)NC(=O)[C@@H]2C[C@@H](O)CN2C(=O)[C@H]([C@@H](C)O)NC1=O [CAS, caspofungin]
0.25 µg/mL: Plate concentration (C. albicans NRRL Y-477 [1]; SDA, minimum concentration to cleanly inhibit growth) | MIC (C. albicans NRRL Y-477 [3]; NRRLY477, NRRL Y-477 P20-1, selecting drug CAS) | MIC (C. albicans NRRL Y-477 [3]; NRRLY477, read-out: MIC P20, NRRL Y-477, total population after 20 passages with the selecting drug, MIC of selecting drug) | MIC ([5]; 48 h, pH 4, fluconazole-resistant isolate 1, pH 4, 48 h)
(32.1) %: Cumulative % of isolates inhibited at MEC 0.015 μg/mL (Aspergillus fumigatus)
3.16E−08 and 2.92E−08 and 3.50E−08: Freq. (replicate mutation frequency) ([2]; ATCC 2001)
1: MIC fold-shift (C. albicans NRRL Y-477 [3]; NRRL Y-477, WT to P20)
35: Number of isolates inhibited at MEC 0.03 μg/mL (Aspergillus fumigatus)
18: Number of isolates inhibited at MEC 0.015 μg/mL (Aspergillus fumigatus)
1 µg/mL: MIC ([4]; ATCC 2001 P20-2, selecting drug CMP1) | MIC ([4]; ATCC 90030 P20-2, selecting drug CMP1) | MIC (C. parapsilosis CP02; CP02, CP02 P20-1, selecting drug CAS) | MIC (C. parapsilosis CP02; CP02, CP02 P20-1, selecting drug CMP1) | MIC (C. parapsilosis CP02; CP02, read-out: MIC P20, CP02, total population after 20 passages with the selecting drug, MIC of selecting drug) | MIC (C. krusei ATCC 6258; ATCC6258, read-out: MIC P20) | MIC ([5]; 48 h, pH 4, fluconazole-resistant isolate 2, pH 4, 48 h) | MIC ([5]; 48 h, pH 4, fluconazole-resistant isolate 4, pH 4, 48 h) | MIC ([5]; 48 h, pH 4, fluconazole-resistant isolate 6, pH 4, 48 h) | MIC ([5]; 48 h, pH 4, fluconazole-resistant isolate 7, pH 4, 48 h) | MIC ([5]; 48 h, pH 4, fluconazole-resistant isolate 9, pH 4, 48 h) | MIC ([5]; 48 h, pH 4, fluconazole-resistant isolate 10, pH 4, 48 h) | MIC ([5]; 48 h, pH 7, fluconazole-resistant isolate 6, pH 7, 48 h) | MIC90 ([5]; pH 4, 48 h) | MIC90 ([5]; pH 7, 48 h) | MIC90 ([6]; pH 4, 24 h) | MIC90 ([6]; pH 7, 24 h)
3.45E−07: Median mutation frequency ([2]; ATCC 90030)
4.85E−07 and 3.45E−07 and 2.57E−07: Freq. (replicate mutation frequency) ([2]; ATCC 90030)
32 µg/mL: MIC ([4]; 48 h, ATCC 90030 P20-1, selecting drug CAS, Fks2 HS1 F659I D666Y, 48 h read) | MIC ([4]; read-out: MIC P20, ATCC 90030, total population after 20 passages with the selecting drug, MIC of selecting drug)
2: MIC fold-shift (C. parapsilosis CP02; CP02, WT to P20) | MIC fold-shift (C. krusei ATCC 6258; ATCC 6258, WT to P20)
1.25E−08 and 1.14E−08 and 7.81E−09: Freq. (replicate mutation frequency) (C. albicans NRRL Y-477 [1]; replicate plates 1-3)
(100.0) %: Cumulative % of isolates inhibited at MEC 0.06 μg/mL (Aspergillus fumigatus)
128: MIC fold-shift ([4]; ATCC 90030)
(94.6) %: Cumulative % of isolates inhibited at MEC 0.03 μg/mL (Aspergillus fumigatus)
3: Number of isolates inhibited at MEC 0.06 μg/mL (Aspergillus fumigatus)
3.16E−08: Median mutation frequency ([2]; ATCC 2001)
4 µg/mL: MIC ([5]; 48 h, pH 4, fluconazole-resistant isolate 5, pH 4, 48 h) | MIC90 ([6]; pH 4, 48 h)
8: MIC fold-shift ([4]; ATCC 2001)
1.14E−08: Median mutation frequency (C. albicans NRRL Y-477 [1])
0.5 µg/mL: Plate concentration ([2]; ATCC 2001) | Plate concentration ([2]; ATCC 90030) | MIC (C. albicans NRRL Y-477 [3]; NRRLY477, 48 h, NRRL Y-477 P20-1, selecting drug CMP1, 48 h read) | MIC (C. parapsilosis CP02; CP02, CP02 P20-1, selecting drug ANID) | MIC (C. krusei ATCC 6258; ATCC6258) | MIC ([5]; 48 h, pH 4, fluconazole-resistant isolate 3, pH 4, 48 h) | MIC ([5]; 48 h, pH 4, fluconazole-resistant isolate 8, pH 4, 48 h) | MIC ([5]; 48 h, pH 7, fluconazole-resistant isolate 1, pH 7, 48 h) | MIC ([5]; 48 h, pH 7, fluconazole-resistant isolate 2, pH 7, 48 h) | MIC ([5]; 48 h, pH 7, fluconazole-resistant isolate 3, pH 7, 48 h) | MIC ([5]; 48 h, pH 7, fluconazole-resistant isolate 4, pH 7, 48 h) | MIC ([5]; 48 h, pH 7, fluconazole-resistant isolate 7, pH 7, 48 h) | MIC ([5]; 48 h, pH 7, fluconazole-resistant isolate 8, pH 7, 48 h) | MIC ([5]; 48 h, pH 7, fluconazole-resistant isolate 10, pH 7, 48 h) | MIC90 ([5]; pH 4, 24 h) | MIC90 ([5]; pH 7, 24 h)
2 µg/mL: MIC (C. albicans NRRL Y-477 [3]; NRRLY477, 48 h, NRRL Y-477 P20-1, selecting drug ANID, Fks1 HS1 S645Y, 48 h read) | MIC ([4]; 48 h, ATCC 90030 P20-1, selecting drug ANID, Fks2 HS1 D666I, 48 h read) | MIC ([4]; ATCC 2001 P20-2, selecting drug ANID, Fks1 HS1 D632Y) | MIC ([4]; ATCC 2001 P20-2, selecting drug CAS) | MIC ([4]; read-out: MIC P20, ATCC 2001, total population after 20 passages with the selecting drug, MIC of selecting drug) | MIC ([5]; 48 h, pH 7, fluconazole-resistant isolate 5, pH 7, 48 h) | MIC ([5]; 48 h, pH 7, fluconazole-resistant isolate 9, pH 7, 48 h) | MIC90 ([6]; pH 7, 48 h)

From patent publication US20180256673A1, “METHODS FOR TREATING FUNGAL INFECTIONS” (priority 2015, published 2018)
